Data set [1] concerns the target Cytochrome P450 3A4 (Homo sapiens, UniProt P08684). Description: Inhibition of CYP3A4 in human hepatocyte microsomes using testosterone substrate by HPLC/MS/MS method. It counts as ADME.
Data set [2] concerns the target T1, Lanosterol 14-alpha demethylase (Aspergillus) (UniProt B8NUK6+Q9P8R0+G4WW85). Description: Inhibition of CYP51 in Aspergillus fumigatus assessed as inhibition of microbe growth incubated for 48 to 168 hrs by CLSI M27-A3 guideline based method.
For data set [3], the target named is Lanosterol 14-alpha demethylase (Candida albicans (strain SC5314 / ATCC MYA-2876) (Yeast), UniProt P10613). Nature of the data set: Inhibition of CYP51 in Candida albicans assessed as inhibition of microbe growth incubated for 48 hrs by CLSI M27-A3 guideline based method.
Data set [4] deals with T2, Lanosterol 14-alpha demethylase (Trichophyton rubrum (strain ATCC MYA-4607 / CBS 118892) (Athlete'sfoot fungus)) (UniProt F2SHH3).
T2 sequence (whole entry): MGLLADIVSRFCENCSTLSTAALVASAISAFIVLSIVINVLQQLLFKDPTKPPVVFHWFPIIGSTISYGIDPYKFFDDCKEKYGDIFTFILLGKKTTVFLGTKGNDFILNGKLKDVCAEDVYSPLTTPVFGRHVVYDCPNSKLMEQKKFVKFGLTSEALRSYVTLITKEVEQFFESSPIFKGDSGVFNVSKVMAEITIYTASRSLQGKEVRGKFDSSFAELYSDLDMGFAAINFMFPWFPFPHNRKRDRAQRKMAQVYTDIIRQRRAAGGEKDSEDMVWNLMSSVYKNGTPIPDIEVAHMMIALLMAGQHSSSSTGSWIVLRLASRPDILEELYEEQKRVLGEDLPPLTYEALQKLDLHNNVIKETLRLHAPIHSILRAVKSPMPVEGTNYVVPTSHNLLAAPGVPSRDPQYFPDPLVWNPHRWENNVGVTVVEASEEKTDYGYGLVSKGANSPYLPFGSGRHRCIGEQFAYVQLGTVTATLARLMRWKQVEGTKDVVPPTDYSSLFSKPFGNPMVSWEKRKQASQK
Description: Inhibition of CYP51 in Trichophyton rubrum assessed as inhibition of microbe growth incubated for 48 hrs by CLSI M27-A3 guideline based method.

In data set [5] the test system is Cryptococcus neoformans. Description: Inhibition of CYP51 in Cryptococcus neoformans assessed as inhibition of microbe growth incubated for 48 hrs by CLSI M27-A3 guideline based method.
Data set [6] addresses T1, Lanosterol 14-alpha demethylase (Aspergillus). Nature of the data set: Inhibition of CYP51 in Aspergillus flavus assessed as inhibition of microbe growth incubated for 48 to 168 hrs by CLSI M27-A3 guideline based method.
For data set [7], the target named is Lanosterol 14-alpha demethylase (Candida glabrata (strain ATCC 2001 / BCRC 20586 / JCM 3761 / NBRC 0622 /NRRL Y-65 / CBS 138) (Yeast) (Nakaseomyces glabratus)) (UniProt P50859). Nature of the data set: Inhibition of CYP51 in Candida glabrata assessed as inhibition of microbe growth incubated for 48 hrs by CLSI M27-A3 guideline based method.

The structures appear in SMILES notation. The source made the active and inactive calls. The rule behind the calls is not given here. Where only a bound is given, the exact number is not on record here.

Chain of Cytochrome P450 3A4 (P08684 whole entry): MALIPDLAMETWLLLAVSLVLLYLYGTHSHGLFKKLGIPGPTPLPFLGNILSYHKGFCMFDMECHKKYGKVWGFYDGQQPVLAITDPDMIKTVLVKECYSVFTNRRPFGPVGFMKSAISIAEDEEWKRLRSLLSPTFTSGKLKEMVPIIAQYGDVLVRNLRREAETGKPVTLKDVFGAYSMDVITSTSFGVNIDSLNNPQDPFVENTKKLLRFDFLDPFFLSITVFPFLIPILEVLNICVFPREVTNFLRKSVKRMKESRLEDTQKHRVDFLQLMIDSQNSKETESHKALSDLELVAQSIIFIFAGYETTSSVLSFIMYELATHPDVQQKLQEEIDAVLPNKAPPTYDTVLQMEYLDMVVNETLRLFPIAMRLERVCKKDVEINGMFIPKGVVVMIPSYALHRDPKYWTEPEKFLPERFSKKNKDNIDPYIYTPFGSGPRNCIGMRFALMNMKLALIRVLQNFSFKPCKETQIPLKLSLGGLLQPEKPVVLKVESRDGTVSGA
Chain of Lanosterol 14-alpha demethylase (P10613 whole entry): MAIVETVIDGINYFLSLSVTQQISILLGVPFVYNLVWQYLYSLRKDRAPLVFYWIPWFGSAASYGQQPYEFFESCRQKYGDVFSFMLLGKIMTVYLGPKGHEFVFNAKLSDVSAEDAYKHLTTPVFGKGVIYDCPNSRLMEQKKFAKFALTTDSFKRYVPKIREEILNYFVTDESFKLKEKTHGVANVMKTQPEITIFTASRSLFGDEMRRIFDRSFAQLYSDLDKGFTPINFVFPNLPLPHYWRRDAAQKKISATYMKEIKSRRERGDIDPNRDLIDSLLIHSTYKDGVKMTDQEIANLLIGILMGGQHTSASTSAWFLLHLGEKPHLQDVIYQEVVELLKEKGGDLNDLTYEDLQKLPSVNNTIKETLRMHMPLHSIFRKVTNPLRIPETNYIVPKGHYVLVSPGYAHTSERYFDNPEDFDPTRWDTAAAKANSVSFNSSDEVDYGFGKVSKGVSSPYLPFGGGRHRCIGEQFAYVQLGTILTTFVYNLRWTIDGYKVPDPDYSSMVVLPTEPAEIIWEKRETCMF
Chain of Lanosterol 14-alpha demethylase (Candida glabrata (strain ATCC 2001 / BCRC 20586 / JCM 3761 / NBRC 0622 /NRRL Y-65 / CBS 138) (Yeast) (Nakaseomyces glabratus)) (P50859 whole entry): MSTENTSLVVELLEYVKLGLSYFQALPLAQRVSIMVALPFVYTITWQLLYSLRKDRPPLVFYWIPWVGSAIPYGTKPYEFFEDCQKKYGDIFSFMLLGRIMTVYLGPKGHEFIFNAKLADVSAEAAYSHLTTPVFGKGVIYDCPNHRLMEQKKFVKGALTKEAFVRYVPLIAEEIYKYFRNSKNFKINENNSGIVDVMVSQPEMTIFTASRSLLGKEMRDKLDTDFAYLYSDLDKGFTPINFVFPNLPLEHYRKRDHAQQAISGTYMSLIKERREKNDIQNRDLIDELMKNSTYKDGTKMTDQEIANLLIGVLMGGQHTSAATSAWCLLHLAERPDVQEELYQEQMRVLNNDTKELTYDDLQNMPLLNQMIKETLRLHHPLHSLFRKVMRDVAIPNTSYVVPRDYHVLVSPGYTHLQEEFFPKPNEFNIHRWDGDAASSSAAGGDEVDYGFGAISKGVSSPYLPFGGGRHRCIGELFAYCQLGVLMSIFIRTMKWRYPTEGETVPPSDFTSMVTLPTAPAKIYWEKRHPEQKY

`OC(Cn1cnnn1)(c1ccc(F)cc1F)C(F)(F)c1ccc(C#Cc2ccc(C(F)(F)F)cc2)cn1` (centres undefined) came in with an IC50 in data set [1] of more than 200 µM. For the same compound, in data set [2], the MIC100 is more than 64 µg/mL. Moreover, in data set [3], the MIC50 worked out at 0.016 µg/mL.

For the compound `OC(Cn1cnnn1)(c1ccc(F)cc1F)C(F)(F)c1ccc(C#Cc2ccc(OCC(F)F)cc2)cn1` (centres undefined), half-maximal inhibition in data set [1] (IC50) was put at 60 µM. The MIC100 in data set [2] was determined as 64 µg/mL. The MIC50 in data set [3] is less than 0.001 µg/mL.

For the compound `OC(Cn1cnnn1)(c1ccc(F)cc1F)C(F)(F)c1ccc(C#Cc2ccc(OCc3ccc(F)cc3)cc2)cn1` (centres undefined), the IC50 in data set [1] was more than 200 µM. Moreover, the MIC100 in data set [2] was determined as 32 µg/mL. In addition, in data set [3], the MIC50 is 0.0625 µg/mL.

In the case of `N#Cc1cccc(COc2ccc(C#Cc3ccc(C(F)(F)C(O)(Cn4cnnn4)c4ccc(F)cc4F)nc3)cc2)c1` (centres undefined), the IC50 in data set [1] is more than 200 µM. Also, the MIC100 in data set [2] was more than 64 µg/mL. Moreover, the MIC50 in data set [3] was 0.016 µg/mL.

`CNC(=O)c1ccc(COc2ccc(C#Cc3ccc(C(F)(F)C(O)(Cn4cnnn4)c4ccc(F)cc4F)nc3)cc2)cc1` (centres undefined): it took 122 µM to reach half-maximal inhibition in data set [1] (IC50). In data set [2], the MIC100 was more than 64 µg/mL. The MIC50 in data set [3] is 0.031 µg/mL.

In data set [1], `OC(Cn1cnnn1)(c1ccc(F)cc1F)C(F)(F)c1ccc(C#Cc2cccc(Cl)c2)cn1` (centres undefined) returned an IC50 of more than 200 µM. Also, the MIC100 in data set [2] is more than 64 µg/mL. The MIC50 in data set [3] turned out to be 0.031 µg/mL.

With `N#Cc1ccc(COc2ccc(C#Cc3ccc(C(F)(F)C(O)(Cn4cnnn4)c4cc(F)ccc4F)nc3)cc2)cc1` (centres undefined), the IC50 in data set [1] is more than 200 µM. The MIC100 in data set [2] was more than 64 µg/mL. For the same compound, in data set [3], the MIC50 came to 0.016 µg/mL.

Compound `OC(Cn1cnnn1)(c1ccc(F)cc1F)C(F)(F)c1ccc(C#Cc2ccc(OCc3ccc(OC(F)(F)F)cc3)cc2)cn1` (centres undefined) displayed an IC50 in data set [1] of more than 200 µM. Further, in data set [2], the MIC100 is more than 64 µg/mL. The MIC50 in data set [3] is 0.25 µg/mL.

On to `N#Cc1ccc(COc2ccc(C#Cc3ccc(C(F)(F)C(O)(Cn4cnnn4)c4ccc(Cl)cc4F)nc3)cc2)cc1` (centres undefined), for which the IC50 in data set [1] was more than 200 µM. Further, the MIC100 in data set [2] is more than 64 µg/mL. For the same compound, the MIC50 in data set [3] was determined as 0.031 µg/mL.

In the case of `N#Cc1ccc(OCc2ccc(C#Cc3ccc(C(F)(F)C(O)(Cn4cnnn4)c4ccc(F)cc4F)nc3)cc2)cc1` (centres undefined), the 50% inhibitory concentration (IC50) in data set [1] was more than 200 µM. In addition, the MIC100 in data set [2] was more than 64 µg/mL. Also, in data set [3], the MIC50 is 0.031 µg/mL.

Take `OC(Cn1cnnn1)(c1ccc(F)cc1F)C(F)(F)c1ccc(C#Cc2ccc(Cl)cc2)cn1` (centres undefined): the IC50 in data set [1] was more than 200 µM. Moreover, the MIC100 in data set [2] was more than 64 µg/mL. In data set [3], the MIC50 amounted to 0.004 µg/mL.

Take `OC(Cn1cnnn1)(c1ccc(F)cc1F)C(F)(F)c1ccc(C#Cc2ccc(NCC(F)(F)F)cc2)cn1` (centres undefined): the IC50 in data set [1] was 10 µM. Further, the MIC100 in data set [2] was 4 µg/mL. In addition, in data set [3], the MIC50 was less than 0.001 µg/mL.

`OC(Cn1cnnn1)(c1ccc(F)cc1F)C(F)(F)c1ccc(C#Cc2ccc(OCc3ccc(C(F)(F)F)cc3)cc2)cn1` (centres undefined): in data set [1], the IC50 was more than 200 µM. Further, in data set [2], the MIC100 was more than 64 µg/mL. Also, the MIC50 in data set [3] worked out at 0.125 µg/mL.

As to `OC(Cn1cnnn1)(c1ccc(F)cc1F)C(F)(F)c1ccc(C#Cc2cccc(F)c2)cn1` (centres undefined), the IC50 in data set [1] was more than 200 µM. Moreover, in data set [2], the MIC100 is more than 64 µg/mL. The MIC50 in data set [3] is 0.004 µg/mL.

The compound `N#Cc1ccc(COc2ccc(C#Cc3ccc(C(F)(F)C(O)(Cn4cnnn4)c4ccc(F)cc4F)nc3)cc2)c(F)c1` (centres undefined) registered an IC50 in data set [1] of more than 200 µM. In addition, the MIC100 in data set [2] was more than 64 µg/mL. Besides, the MIC50 in data set [3] is 0.16 µg/mL.

Turning to `OC(Cn1cnnn1)(c1ccc(F)cc1F)C(F)(F)c1ccc(C#Cc2ccc(OCc3ccc(CC(F)F)cc3)cc2)cn1` (single isomer, unassigned; (+)) [listing 1 of 2 here], the IC50 in data set [1] was more than 200 µM. For the same compound, the MIC50 in data set [3] turned out to be 0.031 µg/mL.

On to `OC(Cn1cnnn1)(c1ccc(F)cc1F)C(F)(F)c1ccc(C#Cc2ccc(F)cc2)cn1` (single isomer, unassigned; (+)) [listing 1 of 2 here], for which half-maximal inhibition in data set [1] (IC50) required 198 µM. Also, in data set [3], the MIC50 is less than 0.001 µg/mL.

The compound `N#Cc1ccc(COc2ccc(C#Cc3ccc(C(F)(F)C(O)(Cn4cnnn4)c4ccc(F)cc4F)nc3)cc2)cc1F` (single isomer, unassigned; (+)) [listing 1 of 2 here] yielded an IC50 in data set [1] of more than 200 µM. Besides, the MIC50 in data set [3] came to 0.004 µg/mL.

In the case of `N#Cc1ccc(COc2ccc(C#Cc3ccc(C(F)(F)C(O)(Cn4cnnn4)c4ccc(F)cc4F)nc3)cc2)cc1` (single isomer, unassigned; (+)), the MIC50 in data set [4] is 0.25 µg/mL; in data set [5] it was 0.0019 µg/mL; in data set [7] it was 0.12 µg/mL. The MIC100 in data set [2] was determined as 0.25 µg/mL; in data set [6] it was 0.5 µg/mL.

`N#Cc1ccc(COc2ccc(C#Cc3ccc(C(F)(F)C(O)(Cn4cnnn4)c4ccc(F)cc4F)nc3)cc2)cc1F` (single isomer, unassigned; (+)) [listing 2 of 2 here]: in data set [2], the MIC100 came out at 0.5 µg/mL.

With `OC(Cn1cnnn1)(c1ccc(F)cc1F)C(F)(F)c1ccc(C#Cc2ccc(F)cc2)cn1` (single isomer, unassigned; (+)) [listing 2 of 2 here], the MIC100 in data set [2] was 16 µg/mL.

Turning to `OC(Cn1cnnn1)(c1ccc(F)cc1F)C(F)(F)c1ccc(C#Cc2ccc(OCc3ccc(CC(F)F)cc3)cc2)cn1` (single isomer, unassigned; (+)) [listing 2 of 2 here], the MIC100 in data set [2] is 2 µg/mL.

On to `OC(Cn1cnnn1)(c1ccc(F)cc1F)C(F)(F)c1ccc(C#Cc2ccc(F)cc2)cn1` (single isomer, unassigned; (-)), for which the MIC100 entry in data set [2] is “inactive”.

Compound `OC(Cn1cnnn1)(c1ccc(F)cc1F)C(F)(F)c1ccc(C#Cc2ccc(F)cc2)cn1` (stereo in doubt; 6a) [listing 1 of 2 here] had an IC50 in data set [1] of 100 µM.

With `OC(Cn1cnnn1)(c1ccc(F)cc1F)C(F)(F)c1ccc(C#Cc2ccc(F)cc2)cn1` (stereo in doubt; 6a) [listing 2 of 2 here], the MIC100 in data set [2] was more than 64 µg/mL.

In data set [1], `OC(Cn1cnnn1)(c1ccc(F)cc1F)C(F)(F)c1ccc(C#Cc2ccc(OCc3ccc(CC(F)F)cc3)cc2)cn1` (stereo in doubt; 7e) [listing 1 of 2 here] had an IC50 of more than 200 µM. Also, the MIC50 in data set [3] was determined as 0.0625 µg/mL.

Regarding `OC(Cn1cnnn1)(c1ccc(F)cc1F)C(F)(F)c1ccc(C#Cc2ccc(OCc3ccc(CC(F)F)cc3)cc2)cn1` (stereo in doubt; 7e) [listing 2 of 2 here], in data set [2], the MIC100 is 4 µg/mL.

In data set [1], `N#Cc1ccc(COc2ccc(C#Cc3ccc(C(F)(F)C(O)(Cn4cnnn4)c4ccc(F)cc4F)nc3)cc2)cc1` (stereo in doubt; 7f) [listing 1 of 2 here] yielded an IC50 of more than 200 µM. Further, the MIC50 in data set [3] was found to be 0.031 µg/mL.

Regarding `N#Cc1ccc(COc2ccc(C#Cc3ccc(C(F)(F)C(O)(Cn4cnnn4)c4ccc(F)cc4F)nc3)cc2)cc1` (stereo in doubt; 7f) [listing 2 of 2 here], the MIC100 in data set [2] stood at 8 µg/mL.

Take `N#Cc1ccc(COc2ccc(C#Cc3ccc(C(F)(F)C(O)(Cn4cnnn4)c4ccc(F)cc4F)nc3)cc2)cc1F` (stereo in doubt; 8a) [listing 1 of 2 here]: the IC50 in data set [1] was more than 200 µM. Besides, the MIC50 in data set [3] turned out to be 0.031 µg/mL.

Turning to `N#Cc1ccc(COc2ccc(C#Cc3ccc(C(F)(F)C(O)(Cn4cnnn4)c4ccc(F)cc4F)nc3)cc2)cc1F` (stereo in doubt; 8a) [listing 2 of 2 here], the MIC100 in data set [2] was 1 µg/mL.

In the case of `O[C@@](Cn1cnnn1)(c1ccc(F)cc1F)C(F)(F)c1ccc(-c2ccc(OCC(F)(F)F)cc2)cn1` [OTESECONAZOLE], 65 µM corresponded to half-maximal inhibition in data set [1] (IC50). The MIC100 in data set [2] is more than 64 µg/mL. The MIC50 in data set [3] was less than 0.001 µg/mL.

As a reminder, the IC50 is the concentration that gives 50% inhibition.
